The text below walks through data of ChEMBL document CHEMBL4418314, “Cyano-substituted heterocycles with activity as inhibitors of usp30” (2018).

The target of the test is T1, Ubiquitin carboxyl-terminal hydrolase 30 (Homo sapiens, UniProt Q70CQ3).
T1 sequence (Q70CQ3 whole entry): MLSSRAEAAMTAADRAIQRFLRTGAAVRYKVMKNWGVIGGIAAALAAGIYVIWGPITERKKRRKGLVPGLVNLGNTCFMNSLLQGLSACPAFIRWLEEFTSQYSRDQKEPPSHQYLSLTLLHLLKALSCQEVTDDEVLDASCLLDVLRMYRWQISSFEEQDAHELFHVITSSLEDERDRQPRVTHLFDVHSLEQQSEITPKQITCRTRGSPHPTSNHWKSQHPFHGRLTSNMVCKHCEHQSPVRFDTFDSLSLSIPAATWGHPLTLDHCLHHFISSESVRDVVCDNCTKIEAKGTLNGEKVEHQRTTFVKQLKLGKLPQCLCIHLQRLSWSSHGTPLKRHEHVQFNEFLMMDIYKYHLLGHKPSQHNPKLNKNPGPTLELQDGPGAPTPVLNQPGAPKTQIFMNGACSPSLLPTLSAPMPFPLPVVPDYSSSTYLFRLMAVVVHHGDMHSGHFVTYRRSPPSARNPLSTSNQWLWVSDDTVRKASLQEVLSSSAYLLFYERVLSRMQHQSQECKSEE
Nature of the test: Inhibition of untagged human USP30 catalytic domain (57 to 517 residues) expressed in Escherichia coli using TAMRA labeled ubiquitin peptide as substrate preincubated for 30 min followed by substrate addition and measured after 2 hrs by fluorescence polarization assay. (In general: In fluorescence polarisation assays a small probe gives low polarisation when free and higher when bound to something large.)

SMILES strings stand for the structures.

The term IC50 denotes the concentration that gives 50% inhibition. Lower therefore signals inhibition by little substance. As to `N#CN1CCC[C@](F)(C(=O)Nc2cc(-c3cccc(C(F)(F)F)c3)on2)C1`, the IC50 was under 100 nM.
